Values after ≈ are worked out from the molar mass of the structure shown.
Assays:
Staphylococcus aureus = experiment: Antibacterial susceptibility testing: IC90 determination (broth microdilution, resazurin fluorescence); assay type: cell-based; settings: 90% inhibitory concentration for bacterial growth, Mueller Hinton broth, 35° C., 16-20 hours, strain not given
Procedure: Preparation of Bacterial Suspensions for Susceptibility Testing
The following bacteria were used: Staphylococcus aureus ATCC 29213, methicillin-resistant Staphylococcus aureus (MRSA) ATCC 700788 and Escherichia coli ATCC 35218. The bacteria used in this study were grown overnight in flasks containing 100 ml Mueller-Hinton broth (Difco cat. nr. 0757-17) in sterile de-ionized water, with shaking, at 37° C. Stocks were store at −70° C. until use.
Bacteria were incubated on a tryptic soy agar plate containing 5% sheep blood (Becton Dickinson cat. nr. 254053) for 18-24 hours at 35° C. in aerobic conditions (first passage). For the second passage, fresh Mueller-Hinton broth is inoculated with 5-10 colonies and grown overnight at 35° C. until turbidity (reaching log-phase) in aerobic conditions is reached. The bacterial suspension is then adjusted to 0.5 McFarland density and further diluted 1:100 in Mueller Hinton broth medium. This is used as inoculum.
Antibacterial Susceptibility Testing: IC90 Determination
MIC assays were performed by the broth microdilution method in a 96-well format (flat-bottom microtitre plates) with a final volume of 0.1 ml Mueller Hinton broth containing two-fold serial dilutions of compounds and inoculated with 5×10^5 CFU/ml of bacteria (standard inoculum size according to CLSI guidelines). Inhibitors are typically varied over the range of 63 to 0.49 μM. The final DMSO concentration in the assay was 1.25% (maximum tolerable DMSO concentration=6%). In the assays where the effect of human serum on the activity of the compounds against S. aureus was tested, human serum was added at a final concentration of 10%. The plates were incubated at 35° C. for 16-20 hours. At the end of incubation the bacterial growth was quantified fluorometrically. For this, resazurin was added to all wells and the plates were re-incubated. The incubation time is dependent on the type of bacteria. A change in color from blue to pink indicated the growth of bacteria. The fluorescence was read in computer-controlled fluorometer (Fluoroskan Ascent FL, Labsystems) at an excitation wavelength 540 nm and an emission wavelength of 590 nm. The % growth inhibition achieved by the compounds was calculated according to standard methods. The IC90 (expressed in μg/ml) was defined as the 90% inhibitory concentration for bacterial growth. A panel of reference compounds were simultaneously tested for QC approval.

Cytotoxicity MTT assay = assay type: cell-based; settings: human, HelaM cells, concentration that causes 50% reduction in cell viability
Procedure: Cytotoxicity of the compounds was evaluated using the MTT assay. Human HelaM cells grown in 96-well plates were exposed to serial dilutions of the tested compounds (final volume of 0.2 ml) and incubated for 72 hours at 37° C. and 5% CO2 Inhibitors are typically varied over the range of 25 to 0.8 μM. The final DMSO concentration in the assay is 0.5%. MTT (3-(4,5-Dimethylthiazol-2-yl)-2,5-diphenyltetrazolium bromide, a tetrazole) was added and reduced to purple formazan only in living cells. Solubilization of the formazan crystals was achieved by adding 100 μl 2-propanol. Cell viability was determined by measuring the absorbance of the reduced formazan, giving a purple color, at 540 nm and 690 nm. The absorbance measured at 690 nm was automatically subtracted from the absorbance at 540 nm, to eliminate the effects of non-specific absorption. The percent cytotoxicity achieved by the compounds was calculated according to standard methods. Cytotoxicity is reported as CC50, the concentration that causes a 50% reduction in cell viability.

Compound	IC90 (Staphylococcus aureus)	melting point	CC50 at 72 h (Cytotoxicity MTT assay)
COc1cccc(-c2cnc(-c3ccncc3)nc2C2CCN(Cc3cccc(C#N)c3)CC2)c1 [Compound 31]	7.32 µg/mL (≈ 15.9 µM)	140 °C	4.2 µg/mL (≈ 9.1 µM)
COc1cccc(-c2cnc(-c3ccncc3)nc2C2CCN(Cc3ccc(F)cc3F)CC2)c1 [Compound 32]	3.27 µg/mL (≈ 6.92 µM)	138 °C	5.5 µg/mL (≈ 11.6 µM)
COc1cccc(-c2cnc(-c3ccncc3)nc2C2CCN(Cc3cccc(C)c3)CC2)c1 [Compound 33]	13.2 µg/mL (≈ 29.2 µM)	160 °C	7.6 µg/mL (≈ 16.9 µM)
COc1cccc(-c2cnc(-c3ccncc3)nc2C2CCN(Cc3ccc(C#N)cc3)CC2)c1 [Compound 34]	6.99 µg/mL (≈ 15.1 µM)	168 °C	8.7 µg/mL (≈ 18.8 µM)
COc1cccc(-c2cnc(-c3ccncc3)nc2C2CCN(Cc3ccc(C)cc3)CC2)c1 [Compound 35]	13.3 µg/mL (≈ 29.5 µM)	141 °C	7.7 µg/mL (≈ 17.1 µM)
COc1ccc(-c2cnc(-c3ccncc3)nc2C2CCN(CC(C)(C)C)CC2)cc1 [Compound 36]	2.98 µg/mL (≈ 7.15 µM)	154 to 156 °C	> 10.5 µg/mL
CN(C)c1cccc(-c2cnc(-c3ccncc3)nc2C2CCN(CC(C)(C)C)CC2)c1 [Compound 37]	3.04 µg/mL (≈ 7.08 µM)	140 to 142 °C	9.2 µg/mL (≈ 21.4 µM)
Cc1ccc(-c2cnc(-c3ccncc3)nc2C2CCN(CC(C)(C)C)CC2)cc1 [Compound 38]	5.04 µg/mL (≈ 12.6 µM)	170 to 171 °C	> 4 µg/mL
CC(C)(C)CN1CCC(c2nc(-c3ccncc3)ncc2-c2cccc(Cl)c2)CC1 [Compound 39]	0.76 µg/mL (≈ 1.81 µM)	119 to 121 °C	7.3 µg/mL (≈ 17.3 µM)
CC(C)(C)CN1CCC(c2nc(-c3ccncc3)ncc2-c2cccc(C(F)(F)F)c2)CC1 [Compound 40]	0.52 µg/mL (≈ 1.14 µM)	112 to 114 °C	7 µg/mL (≈ 15.4 µM)
COc1cccc(-c2cnc(-c3ccncc3)nc2C2CCN(Cc3ccccc3F)CC2)c1 [Compound 41]	8.66 µg/mL (≈ 19.1 µM)	139 °C	7.7 µg/mL (≈ 16.9 µM)
COc1cccc(-c2cnc(-c3ccncc3)nc2C2CCN(Cc3ccccc3C#N)CC2)c1 [Compound 42]	6.75 µg/mL (≈ 14.6 µM)	158 °C	5.1 µg/mL (≈ 11 µM)
COc1cccc(-c2cnc(-c3ccncc3)nc2C2CCN(Cc3ccc(F)c(F)c3)CC2)c1 [Compound 43]	2.24 µg/mL (≈ 4.74 µM)	158 °C	6.2 µg/mL (≈ 13.1 µM)
COc1cccc(-c2cnc(-c3ccncc3)nc2C2CCN(Cc3ccc(Cl)cc3)CC2)c1 [Compound 44]	2.23 µg/mL (≈ 4.73 µM)	131 °C	7 µg/mL (≈ 14.9 µM)
COc1cccc(-c2cnc(-c3ccncc3)nc2C2CCN(Cc3cccc(Cl)c3)CC2)c1 [Compound 45]	3.49 µg/mL (≈ 7.41 µM)	133 °C	4.9 µg/mL (≈ 10.4 µM)
COc1cccc(-c2cnc(-c3ccncc3)nc2C2CCN(Cc3ccccc3C(F)(F)F)CC2)c1 [Compound 46]	4.1 µg/mL (≈ 8.13 µM)	144 °C	4.2 µg/mL (≈ 8.32 µM)
COc1cccc(-c2cnc(-c3ccncc3)nc2C2CCN(Cc3c(F)cccc3F)CC2)c1 [Compound 47]	1.74 µg/mL (≈ 3.68 µM)	184 °C	2.1 µg/mL (≈ 4.44 µM)

Compound	IC90 (Staphylococcus aureus)	melting point	CC50 at 72 h (Cytotoxicity MTT assay)
COc1cccc(-c2cnc(-c3ccncc3)nc2C2CCN(Cc3cc(F)cc(F)c3)CC2)c1 [Compound 48]	3.16 µg/mL (≈ 6.69 µM)	181 °C	2.2 µg/mL (≈ 4.66 µM)
C#CCN1CCC(c2nc(-c3ccncc3)ncc2-c2cccc(OC)c2)CC1 [Compound 49]	12.2 µg/mL (≈ 31.6 µM)	160 °C	> 9.7 µg/mL
Cc1ccccc1-c1cnc(-c2ccncc2)nc1C1CCN(CC(C)(C)C)CC1 [Compound 50]	9.61 µg/mL (≈ 24 µM)	208 °C	> 4 µg/mL
CC(C)(C)CN1CCC(c2nc(-c3ccncc3)ncc2-c2cccc(C#N)c2)CC1 [Compound 54]	1.29 µg/mL (≈ 3.13 µM)	155 °C	> 10.3 µg/mL
COc1cccc(-c2cnc(-c3ccncc3)nc2C2CCN(CC(F)F)CC2)c1 [Compound 56]	1.49 µg/mL (≈ 3.63 µM)	123 °C	> 10.3 µg/mL
COc1cccc(-c2cnc(-c3ccncc3)nc2C2CCN(CC(C)(C)C#N)CC2)c1 [Compound 57]	0.39 µg/mL (≈ 0.912 µM)	117 °C	7.3 µg/mL (≈ 17.1 µM)
N#Cc1cccc(-c2cnc(-c3ccncc3)nc2C2CCN(CC(F)(F)F)CC2)c1 [Compound 58]	0.69 µg/mL (≈ 1.63 µM)	168 to 172 °C	> 10.6 µg/mL
N#Cc1cccc(-c2cnc(-c3ccncc3)nc2C2CCCN(CC(F)(F)F)C2)c1 (stereo not drawn) [Compound 59]	> 26.7 µg/mL	163 to 164 °C	> 10.6 µg/mL
N#Cc1cccc(-c2cnc(-c3cccnc3)nc2C2CCCN(CC(F)(F)F)C2)c1 (stereo not drawn) [Compound 60]	> 26.7 µg/mL	52 to 92 °C	> 10.6 µg/mL
CC(C)(C)CN1CCCC(c2nc(-c3cccnc3)ncc2-c2cccc(C#N)c2)C1 (stereo not drawn) [Compound 62]	> 25.9 µg/mL	57 to 113 °C	> 10.3 µg/mL
CC(C)(C)CN1CCC(c2nc(C3CC3)ncc2-c2cccc(C#N)c2)CC1 [Compound 63]	2.74 µg/mL (≈ 7.32 µM)	125 to 126 °C	> 9.4 µg/mL
CC(C)(C)CN1CCC(c2nc(C(F)(F)F)ncc2-c2cccc(C#N)c2)CC1 [Compound 64]	1.46 µg/mL (≈ 3.63 µM)	114 to 116 °C	> 10.1 µg/mL
CC(C)(C)CN1CCC(c2nc(-c3ccc(C#N)cc3)ncc2-c2cccc(C#N)c2)CC1 [Compound 65]	0.13 µg/mL (≈ 0.298 µM)	247 to 249 °C	> 4.4 µg/mL
CC(C)(C)CN1CCC(c2nc(-c3ccc(F)cc3)ncc2-c2cccc(C#N)c2)CC1 [Compound 66]	< 0.21 µg/mL	154 to 158 °C	8.8 µg/mL (≈ 20.5 µM)
COc1ccc(-c2ncc(-c3cccc(C#N)c3)c(C3CCN(CC(C)(C)C)CC3)n2)cn1 [Compound 67]	0.81 µg/mL (≈ 1.83 µM)	144 to 145 °C	> 11.1 µg/mL
CC(C)(C)CN1CCC(c2nc(-c3cncnc3)ncc2-c2cccc(C#N)c2)CC1 [Compound 68]	6.1 µg/mL (≈ 14.8 µM)	163 to 170 °C	> 10.4 µg/mL
CC(C)(C)CN1CCC(c2nc(-c3cccnc3)ncc2-c2cccc(C#N)c2)CC1 [Compound 69]	3.02 µg/mL (≈ 7.34 µM)	148 to 150 °C	> 10.3 µg/mL

Source: patent publication US9725432B2, “Pyrimidine derivatives for the treatment of bacterial diseases” (JANSSEN R&D IRELAND, priority 2012, dated 2017)
